Experimental data published in paper PMC10400562, “Label-free measurement of antimicrobial peptide interactions with lipid vesicles and nanodiscs using microscale thermophoresis” (Scientific Reports, 2023).
Non-standard residues stand in square brackets, D forms with d. Residues, ends and D or L forms follow the SMILES beside them.

Legend:
E. coli ATCC 25922 = type: cell-based; conditions: for E. coli MIC (ATCC 25922): ATCC 25922, 24 h
Procedure: (§1) The bacterial strains used were E. coli ATCC 25922 and S. aureus ATCC 9144. Overnight cultures and MIC assays were performed in cationic-adjusted BD BBL Mueller Hinton II Broth (MHB II, 212322, Becton, Dickson and Company, Sparks, MD, USA).
(§2) The MICs for 1–5 were determined using the CLSI M07-A9 guidelines. Working solutions were prepared in double distilled water containing max. 1% DMSO. A concentration range between 256–0.25 µg/mL was tested for each peptide. The bacterial inoculum was 1 × 10^6 cells/mL and incubated 1:1 with each test compound in a polypropylene 96-well round-bottom plate (655209, Greiner Bio-One, Kresmmuenster, Austria). Each MIC test was performed in three biological replicates, consisting of four technical replicates. Positive controls (without antibiotics) and negative controls (without bacteria) were included for each technical replicate. The reference antibiotic erythromycin was included to assure quality control. The plates were incubated for 24 h at 37 °C. The MIC value was defined as the lowest concentration of compound resulting in no visible bacterial growth.

S. aureus ATCC 9144 = type: cell-based; conditions: for S. aureus MIC (ATCC 9144): ATCC 9144, 24 h
Procedure: as §1, §2

[1] = Label-free MST, peptide binding to 100 nm vesicles; conditions: 2500 nM AMP; for Kd: label-free MST (Trp fluorescence), lipid 0–1.5 mM, 10 mM TRIS pH 7.4 100 mM NaCl, mean ± SD of triplicates, '>' = minimum value; for Vesicle KP, DMPC (MST) / Vesicle KP, DMPC/PG (MST): partition coefficient from initial fluorescence on MST instrument, TRIS pH 7.4, ± SD of triplicate fits, judged unreliable by authors; for Vesicle KP, DMPC (MST): hyperbolic fit after removal of deviant points; for Vesicle KP, DMPC/PG (MST): hyperbolic fit
Description: For KD evaluation by MST, FHot was registered during the temperature related intensity change (TRIC) phase of the MST trace (see “Methods”). The advantage of evaluating KD during the TRIC phase is that any potential effects of prolonged heating on the thermostability of the sample that may influence the binding can be avoided. The dose–response profile of MST response against lipid concentration for 1–5 largely follows a sigmoidal curve shape (Fig. 3A,B).
DMPC and DMPC:5% DMPG vesicles were prepared by solubilising a known weight of lipid in chloroform with a small amount of methanol to assist in the dissolution of the PG lipid head groups. The chloroform stock was dried in vacuo to produce a lipid film, which was further dried for additional 3 h. The lipid film was solubilised in 10 mM TRIS buffer (pH 7.4) containing 100 mM NaCl to yield a 20 mM milky lipid stock.
To produce the working vesicle stock, 1 mL of vesicle stock was extruded 20 times through a 0.1 µm filter using an Avanti Lipids mini-extruder. Vesicle size was confirmed using a Malvern Zetasizer Nano ZS (Malvern Panalytical Ltd, Malvern, United Kingdom).
(§3) All MST measurements were conducted on a NanoTemper Monolith NT. Labelfree instrument, using Monolith NT. Labelfree standard treated zero background capillaries.
(§4) A dilution series of vesicles/nanodiscs was prepared from 3 mM to 100 nM lipid concentrations, comprising 15 discrete samples, and an additional zero lipid sample, for a total of 16 lipid concentrations. Final MST samples were prepared as a combination of 25 µL lipid solution and 25 µL 5 µM peptide solution (Table S1 in the Supporting Information).
(§5) MST measurements were conducted with excitation power set to 15%, with the MST power set to high. Laser time settings were: 3 s pre-laser, 30 s on time, and 3 s after heating. FHot was taken from the T-jump period after 1.5 s and FCold taken in the second prior to IR laser activation. For the evaluation of KP, the initial fluorescence was taken as the value reported during the period before the application of the laser. The MST response and initial fluorescence were extracted directly as a text file for further processing in MATLAB.
(§6) In a typical binding experiment that yields a sigmoidal curve, the Hill equation can be fitted to yield KD:[66]6 y=y0+EMaxLipid^n/KDn+Lipid^n where y is the MST response, y0 is the MST response of the AMP in an aqueous solution (i.e., in the absence of lipids), n is the Hill coefficient, and EMax is the maximal effect of the tested substrate. The removal of outlying MST response points was necessary. Erroneous points were identified by poor MST trace shapes or higher than expected initial fluorescence that was absent in the other replicates or subsequent points, but otherwise no further treatment of data was necessary. In all instances the MST response was plotted against log lipid concentration in nM and fit to Eq. (6).
(§7) The Kp of a molecule can be determined experimentally by observing changes in fluorescent intensity in the presence of an increasing concentration of lipid, and fitting to Eq. (8)[43].8 I/Iaq=1+KpVmLipidIL/Iaq/1+KPVmLipid
(§8) In Eq. (8) the fluorescence intensity of the AMP (I) is normalised to the fluorescence intensity of the AMP in an aqueous environment (Iaq), Vm is the molar volume of the lipids and IL is the fluorescence intensity of the AMP in the lipidic environment. For Vm, the average molar volume of the lipid composition is used. In the case of the DMPC only environments it is taken as the Vm of DMPC (1.023 nm^3), and in the DMPC-DMPG mixture it is the weighted average relative to the composition used (Vm DMPG = 0.997 nm^3)[54].

[2] = Label-free MST, peptide binding to SMA-QA nanodiscs; conditions: for Kd: label-free MST, SMA-QA nanodiscs (cationic belt), 2500 nM AMP, Hill fit, mean ± SD of triplicates, '>' = minimum value; for SMA-QA KP, DMPC (MST) / SMA-QA KP, DMPC/PG (MST): partition coefficient from initial fluorescence on MST instrument, SMA-QA nanodiscs, hyperbolic fit, ± SD of triplicate fits
Procedure: The MST data for two nanodisc types, SMA and SMA-QA, were evaluated using the same methodology as the vesicle data, with FHot taken during the TRIC, and Fnorm plotted against log[lipid] and fit to Eq. (6).
The DMPC, and DMPC with 5% DMPG 21 mM vesicle stocks were used for the nanodisc preparation. The stocks were combined with an 8% SMA stock solution to yield a final SMA concentration of 1% for SMA nanodiscs. The stocks were combined with a 100 mg/mL SMA-QA stock to yield a final lipid:SMA-QA w/w ratio of 1:1.5. The combined SMA/SMA-QA and lipid mixture were incubated at room temperature overnight and purified by SEC. Fractions containing SMA/SMA-QA discs were concentrated using centrifugation filters. Total lipid concentration was determined by ^31P NMR (Figs. S4–S7). Nanodisc size was confirmed using a Malvern Zetasizer Nano ZS (Malvern Panalytical Ltd, Malvern, United Kingdom).
as §3, §4, §5, §6, §7, §8

SPR; KP from the fits = conditions: buffer
[3] = Vesicle; KP from the fits; conditions: buffer
[4] = Hill fit of Fnorm in TRIC phase, insufficient curve sampling, read-out: Vesicle KD, DMPC (MST)
[5] = Hill fit, read-out: Vesicle KD, DMPC/PG (MST)
[6] = read-out: SMA-QA KD, DMPC (MST)
[7] = read-out: SMA-QA KD, DMPC/PG (MST)

SMILES	E. coli MIC (ATCC 25922) (E. coli ATCC 25922) [µg/mL]	S. aureus MIC (ATCC 9144) (S. aureus ATCC 9144) [µg/mL]	Kd [1, 4] [µM]	Kd [1, 5] [µM]	Vesicle KP, DMPC (MST) [1]	Vesicle KP, DMPC/PG (MST) [1]	Kd [2, 6] [µM]	Kd [2, 7] [µM]	SMA-QA KP, DMPC (MST) [2]	SMA-QA KP, DMPC/PG (MST) [2]	membrane partition coefficient KP (KP x 10^3) (SPR; KP from the fits; DMPC bilayer on SPR chip)	membrane partition coefficient KP (KP x 10^3) (SPR; KP from the fits; DMPC/PG bilayer on SPR chip)	membrane partition coefficient KP (KP x 10^3) ([3]; DMPC vesicles (MST))	membrane partition coefficient KP (KP x 10^3) ([3]; DMPC/PG vesicles (MST))	antimicrobial activity against tested strain (E. coli ATCC 25922; E. coli ATCC 25922, statement in text)	antimicrobial activity against tested strain (S. aureus ATCC 9144; S. aureus ATCC 9144, statement in text)
N=C(N)NCCC[C@@H]1NC(=O)[C@H](CCCNC(=N)N)NC(=O)[C@H](Cc2c[nH]c3ccccc23)NC(=O)[C@H](Cc2c[nH]c3ccccc23)NC(=O)[C@H](Cc2c[nH]c3ccccc23)NC(=O)[C@H](CCCNC(=N)N)NC1=O [compound 1] (cyclo(WWWRRR))	8	4	21 ± 3	10 ± 5	7.24 ± 1.73 × 10^3	7.73 ± 1.58 × 10^3	142 ± 17	40 ± 5	7.07 ± 1.78 × 10^3	7.63 ± 1.89 × 10^3	6.65 ± 0.80 x10^3	12.71 ± 0.16 x10^3	7.24 ± 1.73 x10^3	7.73 ± 1.58 x10^3		
N=C(N)NCCC[C@@H]1NC(=O)[C@H](Cc2c[nH]c3ccccc23)NC(=O)[C@H](CCCNC(=N)N)NC(=O)[C@H](Cc2c[nH]c3ccccc23)NC(=O)[C@H](CCCNC(=N)N)NC(=O)[C@H](Cc2c[nH]c3ccccc23)NC1=O [compound 2] (cyclo(WRWRWR))	32	32	73 ± 53	24 ± 7	7.08 ± 2.32 × 10^3	16.97 ± 3.83 × 10^3	> 541	> 615	36.55 ± 11.82 × 10^3	12.62 ± 4.16 × 10^3	1.30 ± 0.09 x10^3	3.16 ± 0.15 x10^3	7.08 ± 2.32 x10^3	16.97 ± 3.83 x10^3		
NCCCC[C@@H]1NC(=O)[C@H](CCCCN)NC(=O)[C@H](Cc2c[nH]c3ccccc23)NC(=O)[C@H](Cc2c[nH]c3ccccc23)NC(=O)[C@H](Cc2c[nH]c3ccccc23)NC(=O)[C@H](CCCCN)NC1=O [compound 3] (cyclo(WWWKKK))	8	32	28 ± 3	17 ± 13	2.55 ± 0.89 × 10^3	11.05 ± 4.49 × 10^3	267 ± 47	145 ± 55	9.16 ± 2.86 × 10^3	4.93 ± 0.81 × 10^3	2.53 ± 0.08 x10^3	5.16 ± 0.34 x10^3	2.55 ± 0.89 x10^3	11.05 ± 4.49 x10^3		
NCCCC[C@@H]1NC(=O)[C@H](Cc2c[nH]c3ccccc23)NC(=O)[C@H](CCCCN)NC(=O)[C@H](Cc2c[nH]c3ccccc23)NC(=O)[C@H](CCCCN)NC(=O)[C@H](Cc2c[nH]c3ccccc23)NC1=O [compound 4] (cyclo(WKWKWK))	64	128	282 ± 58	112 ± 29	8.56 ± 7.41 × 10^3	14.90 ± 4.84 × 10^3	> 713		6.15 ± 6.54 × 10^3	3.23 ± 1.87 × 10^3	0.53 ± 0.01 x10^3	0.63 ± 0.03 x10^3	8.56 ± 7.41 x10^3	14.90 ± 4.84 x10^3		
CC(C)C[C@@H]1NC(=O)[C@@H](CCCNC(=N)N)NC(=O)[C@H](CCCCN)NC(=O)[C@H](CC(N)=O)NC(=O)[C@@H](Cc2c[nH]c3ccccc23)NC(=O)[C@H](Cc2c[nH]c3ccccc23)NC1=O [compound 5] (cyclo(LW[dW]NK[dR]))	> 256	> 256	> 670	> 650	3.10 ± 2.17 × 10^3	1.47 ± 0.07 × 10^3		> 1000	17.12 ± 12.90 × 10^3	3.35 ± 0.57 × 10^3	0.28 ± 0.01 x10^3		3.10 ± 2.17 x10^3	1.47 ± 0.07 x10^3	inactive	inactive
